Results taken from patent US20030104965A1, “Laundry sanitizer containing partially halogenated hydantoins” (Lonza Inc., priority 2001, published 2003).

What was measured:
K. pneumoniae = experiment: Petrocci & Clarke antimicrobial laundry additive test, cotton fabric, Tide powder plus sanitizer; assay type: cell-based; conditions: 30 ppm sanitizer (expressed as Cl2), mixture with Tide powder; for Percent Reduction of K. pneumonia on Fabric: cotton fabric
Description: Bioefficacy studies were performed using cotton fabric samples to compare monochloro dimethyl hydantoin (MCDMH) to trichloroisocyanuric acid (TCCA) and sodium dichloroisocyanurate (DCCA), two chlorine bleaches. Mixtures of Tide® powder, available from Procter and Gamble of Cincinnati, Ohio, and the sanitizers specified in Table 1 were prepared and thereafter dissolved in water. The sanitizers were completely dissolved in the water before testing. The mixtures were tested according to the known Petrocci & Clarke method (A. Petrocci and P. Clarke, Proposed Test Method for Antimicrobial Laundry Additives, Journal of the Association of Official Analytical Chemists, 52(4), 836-842 (1969)) against K. pneumoniae. The percent reduction of K. pneumonia on the fabric and on the wash water was determined.

[1] = test system: Klebsiella pneumoniae ATCC 4352; experiment: Simulated in-use laundry sanitation test (Petrocci and Clarke); assay type: cell-based; conditions: pH 7.0, Example 6
Description: A simulated “in-use” laundry sanitation test, as described in Petrocci and Clarke, supra, was conducted to evaluate the activity of the samples listed in Table 3 below.
The test was performed as follows. Fabric swatches were inoculated and dried with ˜20,000,000 cfu test organism. (Staphylococcus aureus ATCC 6538, Klebsiella pneumoniae ATCC 4352). The swatches were exposed to a sample dilution for 10 minutes followed by neutralization and enumeration of survivors. The percent reduction of bacteria was calculated for the fabric swatches and wash water.
The sample dilutions were prepared as follows. Tide® powder and MCDMH were dissolved separately in water and mixed together. Then the mixture was adjusted to 150 ppm hard water. The Tide® powder mixture contained about 1.8 g of Tide® powder per liter of mixture.
The procedure in Example 5 was repeated with Klebsiella pneumonia ATCC 4352 only. The Tide® liquid sample was prepared by the same procedure as the Tide® powder sample described in Example 5. The Tide® liquid mixture contained about 1.8 g of Tide® liquid per liter of mixture.

Compound | Percent Reduction of K. pneumonia in Wash Water (K. pneumoniae) [%] | Percent Reduction of K. pneumonia on Fabric (K. pneumoniae) [%] | % Reduction in 10 Minutes - Kiebsiella Fabric ([1]; 5 ppm (expressed as Cl2)) [%] | % Reduction in 10 Minutes - Kiebsiella Water ([1]; 5 ppm (expressed as Cl2)) [%] | % Reduction in 10 Minutes - Kiebsiella Fabric ([1]; 10 ppm (expressed as Cl2)) [%] | % Reduction in 10 Minutes - Kiebsiella Water ([1]; 10 ppm (expressed as Cl2)) [%] | % Reduction in 10 Minutes - Kiebsiella Fabric ([1]; 20 ppm (expressed as Cl2)) [%] | % Reduction in 10 Minutes - Kiebsiella Water ([1]; 20 ppm (expressed as Cl2)) [%]
monochloro-5,5-dimethyl hydantoin [MCDMH] | 99.76 | 99.60 | 99.99 | 100 | 100 | 100 | 100 | 100
O=c1nc([O-])n(Cl)c(=O)n1Cl.[Na+] [DCCA, sodium dichloroisocyanurate] | 87.50 | 96.36 | – | – | – | – | – | –
O=c1n(Cl)c(=O)n(Cl)c(=O)n1Cl [TCCA, trichloroisocyanuric acid] | 96.38 | 97.09 | – | – | – | – | – | –
